Measured values: patent US11833144B2, “Treating autoimmune disease” (Mayo Foundation for Medical Education and Research, priority 2020, dated 2023)

Legend:
mice = assay: Mice fed SSI-4 chow: serum fatty acids (GC-MS) and lymphocyte development; assay type: in vivo, mouse
[1] = system: influenza A infected mice; assay: Influenza A/PR8 infection of mice fed SSI-4 chow; assay type: in vivo, mouse
Protocol: For influenza virus infection, influenza A/PR8 strain (200 pfu/mouse) were diluted in FBS-free DMEM media on ice and inoculated in anesthetized mice through intranasal route. Sera were collected before and two weeks after infection for fatty acid component measurement. The mice were fed with control chow or SSI-4 chow for 1 week following influenza infection before switching to regular diet. The mediastinal lymph nodes were analyzed for GC B cell formation and Tfh differentiation. Mice were bred and maintained under specific pathogen-free conditions in Department of Comparative Medicine of Mayo Clinic with IACUC approval.
For analysis of surface markers, cells were stained in PBS containing 1% (w/v) bovine serum albumin on ice for 30 minutes, with anti-IgG1 (RMG1-1, Biolegend), anti-CD19 (ID3, Biolegend) anti-B220 (RA3-6B2, Biolegend), anti-CD4 (GK1.5, Biolegend), anti-CD8 (53-6.7, Biolegend), anti-CD25 (PC16, Biolegend), anti-GL7 (GL-7, Biolegend), anti-CD95 (Jo2, BD Biosciences), anti-CD138 (281-2, Biolegend), anti-IgD (11-26c.2a, Biolegend), anti-PD-1 (J43, ThermoFisher), anti-IgM (II/41, ThermoFisher). Antigen specific GC response was detected with tetramer NP-phycoerythrin conjugated with PE (Biosearch Technologies). CXCR5 was stained with biotinylated anti-CXCR5 (2G8) followed by staining with streptavidin-conjugated PE (both from BD Biosciences). Cell viability was assessed using the Fixable Dye Ghost 510 (Tonbo Bioscience) or Annexin V cell apoptosis kit with 7-AAD (ThermoFisher) following the manufacturer's protocol. Phosflow staining for phospho-S6 (S235/236) was performed using Phosflow Fix/Perm kit (BD Biosciences). Mitochondrial potential was measured by staining with 20 nM TMRM (ThermoFisher) following manufacturer's instructions. Flow cytometry was performed on the LSR II, LSR Fortessa (BD Biosciences) or Attune NxT (ThermoFisher) cytometers, and analysis was performed using FlowJo software (Tree Star).
For NP specific antibodies detection in sera, 96-well plates (2596; Costar) were coated with 2 μg/mL NP23-BSA in PBS overnight. Plates were washed twice (0.05% Tween 20 in PBS), blocked with 5% blocking protein (Bio-Rad) for 1 hour, and washed twice, and serially diluted serum samples were added for 1.5 hours at 37° C. Plates were washed four times and horseradish peroxidase (HRP)-conjugated detection Abs for IgG (Bethyl Laboratories) and IgG1 (Bethyl Laboratories) were added for 1 hour at RT, washed four times, and tetramethylbenzidine (TMB) substrate was added. Reaction was stopped using 2N H2SO4 and read at 450 nm. Similarly, antibodies IgG, IgG1 and IgG2c specific to influenza A/PR8 strain in sera were measured with influenza virus coated plate.

MRL/MpJ-Faslpr mice = assay: MRL/MpJ-Faslpr lupus mouse model fed SSI-4 chow; assay type: in vivo
Protocol: MRL/MpJ-Fas^lpr mice and B6 (C)-H2-Ab1^bm12/KhEgJ (bm12) mice were purchased from the Jackson Laboratory. Six weeks old female MRL/MpJ-Fas^lpr mice were treated with control chow or SSI-4 chow (60 mg/kg, on a two-week SSI-4 chow/control-chow alternating schedule) ad libitum for 15 weeks. Proteinuria was measured using Albustix strips (Siemens). Kidney histology was done using routine H&E staining. Thirty million splenocytes from 8 weeks old B6 (C)-H2-Ab1^bm12/KhEgJ (bm12) mice were transferred into C57BL/6 mice intraperitoneally. Mice were fed with control chow or SSI-4 chow (30 mg/kg, on an one-week SSI-4 chow/control-chow alternating schedule) ad libitum for 8 weeks.
For analysis of surface markers, cells were stained in PBS containing 1% (w/v) bovine serum albumin on ice for 30 minutes, with anti-B220 (RA3-6B2, Biolegend), anti-CD4 (GK1.5, Biolegend), anti-CD138 (281-2, Biolegend), anti-PD-1 (J43, ThermoFisher). CXCR5 was stained with biotinylated anti-CXCR5 (2G8) followed by staining with streptavidin-conjugated PE (both from BD Biosciences). Cell viability was assessed using the Fixable Dye Ghost 510 (Tonbo Bioscience) following the manufacturer's protocol. Flow cytometry was performed on the LSR II, LSR Fortessa (BD Biosciences) or Attune NxT (ThermoFisher) cytometers, and analysis was performed using FlowJo software (Tree Star).

CNC(=O)c1ccnc(NC(=O)N2CCC(Oc3ccccc3Cl)CC2)c1 [SSI-4, 2-{[4-(2-Chlorophenoxy)piperidine-1-carbonyl]amino}-N-methylpyridine-4-carboxamide]
CD25+ pre-B cells in bone marrow (mice; SSI-4 chow): significant reduction
GC percentage and IgA expression in Peyer's patches (mice; SSI-4 chow): modest reduction
composition of thymocytes (mice; SSI-4 chow): unaffected
number of peripheral B cells and CD4+ T cells (mice; SSI-4 chow): not affected
pool of immature B cells and B cell precursors (CD19+ B220int) in bone marrow (mice; SSI-4 chow): significant reduction
serum OA and PO concentration (mice; SSI-4 chow for 1 week, GC-MS): markedly reduced
frequency of mature B cells (CD19+IgMloIgD+) (mice; SSI-4 chow, spleen): slightly increased
production of anti-influenza total IgG, IgG1 and IgG2c in sera ([1]; ELISA): significantly dampened
body weight loss in influenza A infected mice ([1]; SSI-4 chow for 1 week following infection vs control chow): substantially more severe weight loss
frequency of GC B cells in mediastinal lymph nodes ([1]; day 11 following infection): significantly reduced
CD138+ plasmablast formation ([1]; influenza infection): did not affect
expression of Bcl6 in B cells ([1]; mediastinal lymph nodes): significantly reduced
kidney histology (H&E) (MRL/MpJ-Faslpr mice; SSI-4 chow 60 mg/kg, alternating schedule): reduced immune cell infiltration and inflammation
proteinuria (MRL/MpJ-Faslpr mice; SSI-4 chow 60 mg/kg, two-week alternating schedule, from 6 weeks old, measured from 8 weeks old): no increase of proteinuria
B cell proliferation measured by Ki-67 expression (MRL/MpJ-Faslpr mice; flow cytometry): significantly reduced
B cell metabolic activity measured by expression of CD98 (MRL/MpJ-Faslpr mice; flow cytometry MFI): significantly reduced
